Tests used:
Experiment in all cases: Biochemical Assay
[1] = molecular target: Homeodomain-interacting protein kinase 2 (Homo sapiens, UniProt Q9H2X6)
Method: (§1) In vitro biochemical assays were performed in parallel to determine the most potent tool compound.

Aurora kinase A = molecular target: T1, Aurora kinase A (Homo sapiens, UniProt O14965)
T1 sequence (O14965 whole entry): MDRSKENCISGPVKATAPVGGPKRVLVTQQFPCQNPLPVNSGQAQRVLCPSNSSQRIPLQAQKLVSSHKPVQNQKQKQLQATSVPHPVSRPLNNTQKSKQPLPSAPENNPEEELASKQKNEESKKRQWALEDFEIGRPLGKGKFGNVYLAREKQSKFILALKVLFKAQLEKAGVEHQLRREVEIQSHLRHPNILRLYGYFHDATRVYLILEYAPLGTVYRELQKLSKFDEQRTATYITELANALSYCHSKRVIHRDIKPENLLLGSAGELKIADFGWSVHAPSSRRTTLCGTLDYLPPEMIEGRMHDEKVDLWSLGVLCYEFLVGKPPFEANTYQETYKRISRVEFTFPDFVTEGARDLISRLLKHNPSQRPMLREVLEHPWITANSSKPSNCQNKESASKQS
Method: as §1

Aurora kinase B = Aurora kinase B (Homo sapiens, UniProt Q96GD4)
Sequence of Aurora kinase B (Q96GD4 whole entry): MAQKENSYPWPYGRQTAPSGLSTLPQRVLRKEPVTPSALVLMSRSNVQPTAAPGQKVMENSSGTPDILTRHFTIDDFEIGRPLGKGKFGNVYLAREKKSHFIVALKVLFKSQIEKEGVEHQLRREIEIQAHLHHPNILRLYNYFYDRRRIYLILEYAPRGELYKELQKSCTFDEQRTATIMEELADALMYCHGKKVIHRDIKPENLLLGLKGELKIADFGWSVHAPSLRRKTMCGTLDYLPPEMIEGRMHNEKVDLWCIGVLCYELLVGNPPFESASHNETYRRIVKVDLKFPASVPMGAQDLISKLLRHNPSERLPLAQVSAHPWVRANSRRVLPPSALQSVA
Method: as §1

Aurora kinase C = molecular target: T2, Aurora kinase C (Homo sapiens, UniProt Q9UQB9)
T2 sequence (Q9UQB9 whole entry): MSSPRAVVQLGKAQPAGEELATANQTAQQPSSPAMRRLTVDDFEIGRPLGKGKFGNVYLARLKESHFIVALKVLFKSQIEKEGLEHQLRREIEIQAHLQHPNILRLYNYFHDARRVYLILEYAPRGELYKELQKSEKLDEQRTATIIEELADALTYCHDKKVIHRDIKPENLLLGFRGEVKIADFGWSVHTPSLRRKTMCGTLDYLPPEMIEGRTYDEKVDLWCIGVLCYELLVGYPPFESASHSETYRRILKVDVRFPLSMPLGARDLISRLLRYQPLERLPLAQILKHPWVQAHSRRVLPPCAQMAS
Method: as §1

Sequence of Homeodomain-interacting protein kinase 2 (Q9H2X6 whole entry): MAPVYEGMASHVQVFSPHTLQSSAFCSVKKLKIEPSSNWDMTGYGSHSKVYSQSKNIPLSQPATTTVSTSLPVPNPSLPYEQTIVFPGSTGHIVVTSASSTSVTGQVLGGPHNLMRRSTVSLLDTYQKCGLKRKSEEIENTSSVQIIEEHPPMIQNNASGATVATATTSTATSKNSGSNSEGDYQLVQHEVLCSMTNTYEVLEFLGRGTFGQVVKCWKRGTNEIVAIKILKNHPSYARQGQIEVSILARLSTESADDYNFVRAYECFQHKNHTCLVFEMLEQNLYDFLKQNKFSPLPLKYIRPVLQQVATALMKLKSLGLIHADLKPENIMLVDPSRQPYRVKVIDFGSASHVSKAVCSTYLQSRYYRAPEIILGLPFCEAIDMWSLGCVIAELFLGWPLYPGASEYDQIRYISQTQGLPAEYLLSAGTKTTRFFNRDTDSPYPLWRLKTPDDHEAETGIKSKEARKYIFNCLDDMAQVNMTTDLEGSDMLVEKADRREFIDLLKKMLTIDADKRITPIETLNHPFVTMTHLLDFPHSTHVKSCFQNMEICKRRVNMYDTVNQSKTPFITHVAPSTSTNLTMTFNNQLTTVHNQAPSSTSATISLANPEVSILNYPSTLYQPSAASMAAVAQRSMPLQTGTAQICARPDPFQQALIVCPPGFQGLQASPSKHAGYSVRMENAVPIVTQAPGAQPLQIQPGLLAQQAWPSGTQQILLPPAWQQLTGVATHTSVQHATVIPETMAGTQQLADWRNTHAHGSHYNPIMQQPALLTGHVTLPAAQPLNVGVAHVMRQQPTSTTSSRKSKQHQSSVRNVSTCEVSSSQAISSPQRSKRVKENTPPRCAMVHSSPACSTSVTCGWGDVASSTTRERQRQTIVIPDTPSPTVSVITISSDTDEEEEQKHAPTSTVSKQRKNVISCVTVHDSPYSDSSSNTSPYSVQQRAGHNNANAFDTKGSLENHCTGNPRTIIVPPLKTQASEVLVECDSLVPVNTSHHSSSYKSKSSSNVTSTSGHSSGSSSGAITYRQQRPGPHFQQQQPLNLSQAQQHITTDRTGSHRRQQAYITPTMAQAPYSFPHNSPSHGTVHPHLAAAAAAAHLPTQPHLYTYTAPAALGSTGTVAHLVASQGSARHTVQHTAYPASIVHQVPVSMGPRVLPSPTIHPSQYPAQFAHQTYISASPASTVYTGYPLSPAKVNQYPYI

Row | SMILES | IC50 [1] [nM] | Kd [1] [nM] | IC50 (Aurora kinase A) [nM] | IC50 (Aurora kinase B) [nM] | IC50 (Aurora kinase C) [nM]
1 | N=C1NC(=O)/C(=C\c2c[nH]c(=O)c(-c3ccc(N4CCNCC4)nc3)c2)S1 [Furan thiazolidinediones, A64] | 74 | 9.5 |  |  | 
2 | CN1C(=O)c2ccccc2N(C)c2nc(Nc3ccc(N4CCC(O)CC4)cc3)ncc21 [Benzo[e]pyrimido[5,4-b][1,4]diazepin-6(11H)-one, 1] |  |  | 8 | 24 | 41

Reference: BindingDB's records for doi:10.1016/j.chembiol.2011.05.010 (Harvard Medical School, 2011)
